{
  "source": "patent US5780431A",
  "about": "“Pharmaceutical formulations of corticotropin releasing factor having improved stability in liquid form” (Neurobiological Technologies, Inc., priority 1996, dated 1998)",
  "key": {"[1]": {"experiment": "Solubility of CRF in various non-volatile buffer solutions", "assay_type": "physicochemical", "description": "(§1) In an effort to develop liquid formulations of CRF useful for commercial pharmaceutical purposes, experiments designed to measure the solubility of CRF in a variety of different buffer solutions were carried out. Specifically, CRF was added in increasing amounts to a variety of different buffer solutions at various different concentrations and pH's, either in the presence or absence of other excipient additives and the solubility of the CRF product was determined. Table 1 summarizes the results of these experiments measuring the solubility of CRF in various phosphate, citrate and acetate buffers, either in the presence or absence of various excipients such as NaCl and mannitol. CRF solubility is expressed in gross weight of CRF in mg/ml of solution.\nNext, because it is known that certain buffers may be volatilized when lyophilized, further experiments were conducted as described above to examine the solubility of CRF in various other non-volatile buffer solutions."}, "[2]": {"experiment": "Solubility of CRF in various buffer solutions", "assay_type": "physicochemical", "conditions": "for solubility: read-out: CRF solubility (gross weight)", "description": "as §1"}},
  "note": "“And” between values parts separate entries of the source, which are not always exact repeats. Equal values may be shown once. Read-outs that look alike come from different tables or passages of the source.",
  "data": [
    {"smiles": "CC[C@H](C)[C@H](NC(=O)[C@@H](NC(=O)[C@H](CCC(=O)O)NC(=O)[C@H](CCSC)NC(=O)[C@H](CC(C)C)NC(=O)[C@H](CCCCN)NC(=O)[C@H](CCCNC(=N)N)NC(=O)[C@H](CC(N)=O)NC(=O)[C@H](CO)NC(=O)[C@H](Cc1c[nH]cn1)NC(=O)[C@H](C)NC(=O)[C@H](CCC(N)=O)NC(=O)[C@H](CCC(N)=O)NC(=O)[C@H](C)NC(=O)[C@H](CC(C)C)NC(=O)[C@H](CCC(N)=O)NC(=O)[C@H](CCC(=O)O)NC(=O)[C@H](C)NC(=O)[C@H](CCCNC(=N)N)NC(=O)[C@H](C)NC(=O)[C@H](CCSC)NC(=O)[C@H](CCC(=O)O)NC(=O)[C@H](CC(C)C)NC(=O)[C@@H](NC(=O)[C@H](CCC(=O)O)NC(=O)[C@H](CCCNC(=N)N)NC(=O)[C@H](CC(C)C)NC(=O)[C@H](CC(C)C)NC(=O)[C@H](Cc1c[nH]cn1)NC(=O)[C@H](Cc1ccccc1)NC(=O)[C@@H](NC(=O)[C@H](CC(C)C)NC(=O)[C@H](CC(=O)O)NC(=O)[C@H](CC(C)C)NC(=O)[C@H](CO)NC(=O)[C@@H](NC(=O)[C@@H]1CCCN1C(=O)[C@@H]1CCCN1C(=O)[C@H](CCC(=O)O)NC(=O)[C@H](CCC(=O)O)NC(=O)[C@@H](N)CO)[C@@H](C)CC)[C@@H](C)O)C(C)C)[C@@H](C)CC)C(N)=O", "note": "[CRF]", "values": [
      {"measurement": "CRF solubility", "setting": "[1]; 10 mM Phosphate, pH 7.3", "result": 3.0, "unit": "net mg/ml"},
      {"measurement": "CRF solubility", "setting": "[1]; 10 mM Phosphate, pH 7.3 + 25 mM ascorbate", "result": 1.2, "unit": "net mg/ml"},
      {"measurement": "CRF solubility", "setting": "[1]; 10 mM Phosphate, pH 7.3 + 0.25% arginine", "result": 2.0, "unit": "net mg/ml"},
      {"measurement": "CRF solubility", "setting": "[1]; 10 mM Phosphate, pH 7.3 + 0.25% glycine", "result": 2.2, "unit": "net mg/ml"},
      {"measurement": "CRF solubility", "setting": "[1]; 25 mM Ascorbic, pH 4.0", "result": 4.5, "unit": "net mg/ml"},
      {"measurement": "CRF solubility", "setting": "[1]; 25 mM Lactic, pH 4.0", "result": 1.9, "unit": "net mg/ml"},
      {"measurement": "CRF solubility", "setting": "[1]; 25 mM Succinic, pH 4.0", "result": 4.2, "unit": "net mg/ml"},
      {"measurement": "CRF solubility", "setting": "[1]; 25 mM Tartaric, pH 4.0", "result": 0.2, "unit": "net mg/ml"},
      {"measurement": "CRF solubility", "setting": "[1]; ascorbic, lactic, succinic and phosphate buffers tested", "result": "extremely soluble"},
      {"measurement": "CRF solubility", "setting": "[2]; acetate buffer between pH 4 and 5 without added NaCl", "result": "very soluble"},
      {"measurement": "CRF solubility", "setting": "[2]; citrate buffer between pH 4 and 6", "result": "< 0.2", "unit": "mg/mL"},
      {"measurement": "solubility", "setting": "[2]; citrate buffer, pH 4, aqueous buffer, pH 4.0, 25 mM Citrate, 150 mM NaCl", "result": 20, "unit": "µg/mL"},
      {"measurement": "solubility", "setting": "[2]; citrate buffer, pH 4, aqueous buffer, pH 4.0, 25 mM Citrate", "result": 40, "unit": "µg/mL"},
      {"measurement": "solubility", "setting": "[2]; citrate buffer, pH 5.1, aqueous buffer, pH 5.1, 25 mM Citrate, 150 mM NaCl", "result": 10, "unit": "µg/mL"},
      {"measurement": "solubility", "setting": "[2]; citrate buffer, pH 5.1, aqueous buffer, pH 5.1, 25 mM Citrate", "result": 20, "unit": "µg/mL"},
      {"measurement": "CRF solubility (gross weight)", "setting": "[2]; pH 2.0, 10 mM PO4, 138 mM NaCl", "result": 50, "unit": "mg/mL"},
      {"measurement": "CRF solubility (gross weight)", "setting": "[2]; pH 4.08, 5 mM Citrate", "result": 0.2, "unit": "mg/mL"},
      {"measurement": "CRF solubility (gross weight)", "setting": "[2]; pH 4.08, 5 mM Citrate, 150 mM NaCl", "result": 0.16, "unit": "mg/mL"},
      {"measurement": "CRF solubility (gross weight)", "setting": "[2]; pH 4.2, 5 mM HOAC, 150 mM NaCl", "result": 1.17, "unit": "mg/mL"},
      {"measurement": "CRF solubility (gross weight)", "setting": "[2]; pH 4.2, 25 mM HOAc", "result": 29, "unit": "mg/mL"},
      {"measurement": "CRF solubility (gross weight)", "setting": "[2]; pH 4.26, 20 mM HOAc, 5% mannitol", "result": 14.5, "unit": "mg/mL"},
      {"measurement": "CRF solubility (gross weight)", "setting": "[2]; pH 4.34, 20 mM HOAc, 5% mannitol", "result": 11.2, "unit": "mg/mL"},
      {"measurement": "CRF solubility (gross weight)", "setting": "[2]; pH 4.4, 5 mM HOAC", "result": 33, "unit": "mg/mL"},
      {"measurement": "CRF solubility (gross weight)", "setting": "[2]; pH 4.45, 20 mM HOAc, 5% mannitol", "result": 13.8, "unit": "mg/mL"},
      {"measurement": "CRF solubility (gross weight)", "setting": "[2]; pH 4.49, 25 mM HOAc", "result": 5.34, "unit": "mg/mL"},
      {"measurement": "CRF solubility (gross weight)", "setting": "[2]; pH 4.49, 25 mM HOAc, 150 mM NaCl", "result": 0.28, "unit": "mg/mL"},
      {"measurement": "CRF solubility (gross weight)", "setting": "[2]; pH 4.52, 20 mM HOAc, 5% mannitol", "result": 12.5, "unit": "mg/mL"},
      {"measurement": "CRF solubility (gross weight)", "setting": "[2]; pH 4.6, 5 mM HOAC, 5% mannitol", "result": 2.2, "unit": "mg/mL"},
      {"measurement": "CRF solubility (gross weight)", "setting": "[2]; pH 4.7, 5 mM HOAC, 1% mannitol", "result": 1.96, "unit": "mg/mL"},
      {"measurement": "CRF solubility (gross weight)", "setting": "[2]; pH 4.72, 5 mM HOAC, 1% Tween", "result": 1.97, "unit": "mg/mL"},
      {"measurement": "CRF solubility (gross weight)", "setting": "[2]; pH 4.73, 20 mM HOAc, 5% mannitol", "result": 1.53, "unit": "mg/mL"},
      {"measurement": "CRF solubility (gross weight)", "setting": "[2]; pH 4.81, 5 mM HOAC", "result": 1.13, "unit": "mg/mL"},
      {"measurement": "CRF solubility (gross weight)", "setting": "[2]; pH 4.9, 25 mM HOAc", "result": 0.37, "unit": "mg/mL"},
      {"measurement": "CRF solubility (gross weight)", "setting": "[2]; pH 4.9, 25 mM HOAc, 150 mM NaCl", "result": 0.14, "unit": "mg/mL"},
      {"measurement": "CRF solubility (gross weight)", "setting": "[2]; pH 4.92, 5 mM Citrate", "result": 0.03, "unit": "mg/mL"},
      {"measurement": "CRF solubility (gross weight)", "setting": "[2]; pH 4.92, 5 mM Citrate, 150 mM NaCl", "result": 0.01, "unit": "mg/mL"},
      {"measurement": "CRF solubility (gross weight)", "setting": "[2]; pH 4.94, 20 mM HOAc, 5% mannitol", "result": 0.07, "unit": "mg/mL"},
      {"measurement": "CRF solubility (gross weight)", "setting": "[2]; pH 5.0, 5 mM HOAC", "result": 0.13, "unit": "mg/mL"},
      {"measurement": "CRF solubility (gross weight)", "setting": "[2]; pH 5.23, 20 mM HOAc, 5% mannitol", "result": 0.04, "unit": "mg/mL"},
      {"measurement": "CRF solubility (gross weight)", "setting": "[2]; pH 5.84, 5 mM Citrate", "result": 0.04, "unit": "mg/mL"},
      {"measurement": "CRF solubility (gross weight)", "setting": "[2]; pH 5.84, 5 mM Citrate, 150 mM NaCl", "result": 0.02, "unit": "mg/mL"},
      {"measurement": "CRF solubility (gross weight)", "setting": "[2]; pH 6.0, 5 mM HOAC", "result": 0.03, "unit": "mg/mL"},
      {"measurement": "CRF solubility (gross weight)", "setting": "[2]; pH 6.1, 25 mM Citrate", "result": 0.1, "unit": "mg/mL"},
      {"measurement": "CRF solubility (gross weight)", "setting": "[2]; pH 6.1, 25 mM Citrate, 150 mM NaCl", "result": 0.07, "unit": "mg/mL"},
      {"measurement": "CRF solubility (gross weight)", "setting": "[2]; pH 6.24, 25 mM HOAc", "result": 0.09, "unit": "mg/mL"},
      {"measurement": "CRF solubility (gross weight)", "setting": "[2]; pH 6.24, 25 mM HOAc, 150 mM NaCl", "result": 0.05, "unit": "mg/mL"},
      {"measurement": "CRF solubility (gross weight)", "setting": "[2]; pH 7.1, 10 mM PO4, 138 mM NaCl", "result": "0.48 mg/mL and 0.84 mg/mL"},
      {"measurement": "CRF solubility", "setting": "[2]; phosphate buffer between pH 2 and 3.6", "result": "very soluble"},
      {"measurement": "solubility", "setting": "[2]; phosphate buffer, pH 3.6, aqueous buffer, pH 3.6, 10 mM PO4, 138 mM NaCl", "result": 2640, "unit": "µg/mL"},
      {"measurement": "solubility", "setting": "[2]; phosphate buffer, pH 4.2, aqueous buffer, pH 4.2, 10 mM PO4, 138 mM NaCl", "result": 290, "unit": "µg/mL"},
      {"measurement": "solubility", "setting": "[2]; phosphate buffer, pH 4.5, aqueous buffer, pH 4.5, 10 mM PO4, 138 mM NaCl", "result": 620, "unit": "µg/mL"},
      {"measurement": "solubility", "setting": "[2]; phosphate buffer, pH 5.6, aqueous buffer, pH 5.6, 10 mM PO4, 138 mM NaCl", "result": 310, "unit": "µg/mL"},
      {"measurement": "solubility", "setting": "[2]; phosphate buffer, pH 6.02, aqueous buffer, pH 6.02, 5 mM PO4", "result": 80, "unit": "µg/mL"},
      {"measurement": "solubility", "setting": "[2]; phosphate buffer, pH 6.7, aqueous buffer, pH 6.7, 10 mM PO4, 138 mM NaCl", "result": 520, "unit": "µg/mL"},
      {"measurement": "solubility", "setting": "[2]; phosphate buffer, pH 6.96, aqueous buffer, pH 6.96, 5 mM PO4", "result": 470, "unit": "µg/mL"},
      {"measurement": "solubility", "setting": "[2]; phosphate buffer, pH 7.32, aqueous buffer, pH 7.32, 20 mM PO4", "result": 1460, "unit": "µg/mL"},
      {"measurement": "solubility", "setting": "[2]; phosphate buffer, pH 7.7, aqueous buffer, pH 7.7, 5 mM PO4", "result": 460, "unit": "µg/mL"}
    ]}
  ]
}
